Experimental data published in patent US12492169B2, “Aminopyridine compound and application thereof” (priority 2020, dated 2025).
Converted amounts (≈) assume the structure as drawn. “And” between values parts separate entries of the source, which are not always exact repeats. Equal entries are not always repeated.

Legend:
[1] = system: Cryptococcus neoformans H99 ATCC 208821; experiment: Minimum inhibitory concentration (MIC) test against fungi; assay type: cell-based; conditions: Cryptococcus neoformans, ATCC208821, 72 h, ≥50% growth inhibition by eye, three independent experiments, read-out: MIC
Experimental: (§1) To test the minimum inhibitory concentration (MIC) and minimum effective concentration (MEC) of the drug against fungi.
Cryptococcus neoformans H99 ATCC 208821;
(§2) Test medium: RPMI1640 (containing 0.165 M MOPS, pH7.0)
(§3) On the day of the experiment, the compound in the bottle was dissolved in 100% DMSO to a stock solution concentration of 6.24 mg/mL. Then, the mixture was 10-fold diluted with DMSO to 0.624 mg/mL for use.
(§4) A 2-fold gradient dilution of the compound solution (0.624 mg/mL) was performed using DMSO on a 96-microwell plate (V-bottom) to obtain 100× working solutions (wells 1 to 11). 624, 312, 156, 78, 39, 20, 10, 5, 2.5, 1.25, 0.625 μg/mL. 100% DMSO was used as a positive control (well 12). This was the compound stock plate.
Cryptococcus neoformans H99 ATCC 208821 frozen at −80° C. was streaked on SDA plates and incubated aerobically in a 35±2° C. incubator for 48 hours.
On the day of the experiment, for strains Candida parapsilosis ATCC 22019, Candida albicans ATCC MYA-2876; Candida albicans WX-CA009; Candida glabrata ATCC15126; Candida tropicalis ATCC 750 and Cryptococcus neoformans H99 ATCC 208821, the plates were taken out and the clones on the plates were picked, suspended in normal saline, and then the turbidity of the fungal suspension was adjusted to OD600=0.2 using a turbidimeter. The fungal suspension contained about 3.0×10^6 CFU/mL. Then the turbidity-adjusted fungal suspension was diluted with a test medium to a concentration of about 3.0×10^3 CFU/mL. This was the inoculum.
(§5) 2 μL of 100× working solution from the compound stock plate (prepared in 3.1) was transferred to a round-bottomed 96-well plate (containing 98 μL of test medium), and then 100 μL of fungus inoculum (prepared in 3.2) was added to each well to obtain a MIC test plate. Therefore, the final test concentrations of the compounds were 6.24, 3.12, 1.56, 0.78, 0.39, 0.20, 0.10, 0.05, 0.025, 0.0125, 0.006 μg/mL. 1% DMSO was used as a growth control.
For Cryptococcus neoformans H99 ATCC 208821, all test plates were incubated aerobically in a 35±2° C. incubator for 72 hours.
(§6) After incubation, according to the criteria in Table 1 below, the test plate was observed by eye or microscope to determine the MIC (g/mL) and MEC (g/mL) of the test compound against yeast and mold.

[2] = system: Aspergillus flavus ATCC MYA-1004; experiment: Minimum effective concentration (MEC) test against fungi; assay type: cell-based; conditions: change of hyphae morphology by microscope, 48 hours, three independent experiments
Experimental: as §1
(§7) Aspergillus fumigatus ATCC-MYA-4609; Aspergillus flavus ATCC MYA-1004
as §2, §3, §4
(§8) Aspergillus fumigatus ATCC-MYA-4609; Aspergillus flavus ATCC MYA-1004 frozen at −80° C. were streaked on SDA plates and incubated aerobically in a 30±2° C. incubator for 6 days.
(§9) For strains Aspergillus fumigatus ATCC MYA-4609; Aspergillus flavus ATCC MYA-1004, after taking out the plate, 3 mL of 0.9% normal saline containing 0.1% Tween20 was added to the plate and the spores were gently collected. The spores were counted with a hemocytometer and the spore suspension was adjusted to about 5×10^6 spores/mL. Then the spore suspension was diluted to 0.8 to 1×10^5 spores/mL with a test medium.
as §5
(§10) For mold strains Aspergillus fumigatus ATCC-MYA-4609 and Aspergillus flavus ATCC MYA-1004, all test plates were incubated aerobically in a 35±° C. incubator for 48 hours.
as §6

[3] = system: Aspergillus fumigatus ATCC-MYA-4609; experiment: as above; assay type: cell-based; conditions: change of hyphae morphology by microscope, 48 hours, three independent experiments
Experimental: as §1, §7, §2, §3, §4, §8, §9, §5, §10, §6

[4] = Pharmacokinetic evaluation in mice (IV); assay type: in vivo, CD-1 mice; conditions: CD-1, plasma, 1 mg/kg, Mouse, 1 mpk
Description: (§11) Experimental Purpose: To evaluate the druggability of the compounds by measuring its pharmacokinetic properties in different animal species.
(§12) Experimental materials: CD-1 mice, Sprague-Dawley strain rats, beagle dogs, and crab-eating macaques.
(§13) Drug preparation: An appropriate amount of sample was weighed and then prepared into a clear or suspended solution.
(§14) Experimental procedure: The animal pharmacokinetic characteristics after intravenous injection and oral administration of the compound were tested using a standard protocol. The candidate compound was prepared as a clear solution (for intravenous injection) or a homogeneous suspension (for oral administration) during the experiment and administered to the animals as a single dose. Whole blood samples were collected at 0.083, 0.25, 0.5, 1, 2, 4, 8, and 24 hours, centrifuged at 3200 g for 10 minutes to separate the supernatant to obtain plasma samples. The plasma concentration was quantitatively analyzed by LC-MS/MS analysis method and pharmacokinetic parameters were calculated, such as peak concentration, peak time, clearance rate, half-life, area under the drug-time curve, etc.

[5] = Pharmacokinetic evaluation in rats (IV, PO); assay type: in vivo, Sprague-Dawley strain rats; conditions: Sprague-Dawley, plasma, Rat
Description: as §11, §12, §13, §14

[6] = in vivo; set-up: species or system crab-eating macaques; conditions: monkey
Description: as §11, §12, §13, §14

[7] = system: Candida albicans ATCC MYA-4788; experiment: Mouse Candida vaginal infection model; assay type: in vivo; conditions: female C3H/NeH mice, 20 mpk intraperitoneally once a day for 3 days after ABT, CFU at 96 hours of infection, P<0.001
Experimental: • Experimental animals: female C3H/NeH mice, 6 to 8 weeks old, 19 to 21 g, n=5 to 6; • microbial pathogen: Candida albicans ATCC MYA-4788; • inoculation level and route: 5.0E+05 CFU/mouse, infected by vaginal instillation; • test sample: WX004: 20 mpk
Treatment: ABT was administered orally 22 hours after infection, and the test compound was injected intraperitoneally 24 hours after infection. In this experiment, the Vehicle group and the test compound group were set up, with a total of 3 days of administration, once a day, and a administration volume of 10 mL/kg.
Observation indicators: After 96 hours of infection in each group of mice, the vaginal tissue and vaginal lavage fluid of the mice were taken for CFU counting. Plasma samples were collected at 0.25 h, 0.5 h, 1 h, 2 h, 4 h, 8 h, and 24 h after the last administration.

[8] = crab-eating macaque (cynomolgus), iv, 0.4 mg/kg
[9] = crab-eating macaque (cynomolgus), po, 10 mg/kg

Q: For `Nc1ccc(C#CCc2ccc(COc3ccccn3)cc2)cn1` [WX004], which MIC [1] is on record?
A: 1.56 µg/mL (≈ 4.95 µM)

Q: What about the MEC [2] of the same compound?
A: 0.39 µg/mL and 0.78 µg/mL

Q: What about the MEC [3] of the same compound?
A: 0.1 µg/mL

Q: What about the AUC [4] of the same compound?
A: 2 µM·h

Q: What about the Vd [4] of the same compound?
A: 5.2 L/kg

Q: What about the clearance [4] of the same compound?
A: 28 mL/min/kg

Q: And the half-life [4]?
A: 2.1 h

Q: And the AUC ([5]; 3 mg/kg, IV, 3 mpk)?
A: 22 µM·h

Q: What about the Vd ([5]; 3 mg/kg, IV, 3 mpk) of the same compound?
A: 1.8 L/kg

Q: What about the clearance ([5]; 3 mg/kg, IV, 3 mpk) of the same compound?
A: 7 mL/min/kg

Q: And the half-life ([5]; 3 mg/kg, IV, 3 mpk)?
A: 4 h

Q: And the AUC ([5]; 30 mg/kg, PO, 30 mpk)?
A: 95 µM·h

Q: What about the Cmax ([5]; 30 mg/kg, PO, 30 mpk) of the same compound?
A: 10 µM

Q: What about the Tmax ([5]; 30 mg/kg, PO, 30 mpk) of the same compound?
A: 1.5 h

Q: What about the bioavailability ([5]; 30 mg/kg, PO, 30 mpk) of the same compound?
A: 45%

Q: What about the AUC [6, 8] of the same compound?
A: 5 µM·h

Q: What about the Vd [6, 8] of the same compound?
A: 4.4 L/kg

Q: What about the clearance [6, 8] of the same compound?
A: 4.3 mL/min/kg

Q: And the Cmax [6, 9]?
A: 9 µM

Q: What about the Tmax [6, 9] of the same compound?
A: 4 h

Q: And the AUC ([6]; crab-eating macaque, po, 10 mg/kg)?
A: 72 µM·h

Q: What about the half-life ([6]; iv, 0.4 mg/kg) of the same compound?
A: 3.5 h

Q: What about the bioavailability ([6]; po, 10 mg/kg) of the same compound?
A: 60%

Q: And the “reduction of fungal load in the vaginal lavage fluid compared with the Vehicle group” value [7]?
A: 2.5 lg

Q: And the “reduction of fungal load in the vaginal tissue compared with the Vehicle group” value [7]?
A: 2.7 lg
